From patent publication US8329711B2, “Pyridone-substituted-dihydropyrazolopyrimidinone derivative” (MSD K.K., priority 2007, dated 2012)

Legend:
[1] = molecular target: T1, Wee1 kinase (Homo sapiens, UniProt P30291); test: Wee1 kinase-inhibitory effect (33P-ATP filter assay with GST-tagged Wee1); assay type: biochemical; conditions: purified GST-Wee1, Poly(Lys,Tyr) substrate, 10 μM ATP, 30° C. for 30 minutes; read-out: Weel-Inhibitory Effect (IC50)
T1 construct: made in house; host or cells: Sf9 insect cells (recombinant baculovirus)
Text: Pharmacological Test 1 (Wee1 Kinase-Inhibitory Effect)
(1) Purification of Wee1 Kinase:
A cDNA of Wee1 kinase with glutathion-S-transferase (GST) fused at the amino terminal thereof was inserted into a baculovirus expression vector to construct a recombinant baculovirus, with which cells of an insect cell line Sf9 were infected for high expression therein. The infected cells were collected and solubilized, and then the GST-tagged Wee1 kinase protein was adsorbed by a glutathion column, and eluted from the column with glutathion, and the active fraction was desalted in a desalting column to give a purified enzyme.
(2) Determination of Wee1 Kinase Activity:
In determination of the Wee1 kinase activity, a synthetic peptide, Poly(Lys,Tyr) Hydrobromide (Lys:Tyr (4:1)) bought from Sigma was used as the substrate.
The amount of the reaction liquid was 21.1 μL; and the composition of the reaction buffer was 50 mM Tris-HCl buffer (pH 7.4)/10 mM magnesium chloride/1 mM dithiothreitol. The purified Wee1 kinase, 2.5 μg of the substrate peptide, 10 μM of non-labeled adenosine triphosphate (ATP) and 1 μCi of [γ-^33P]-labeled ATP (2500 Ci/mmol or more) were added to it, and reacted at 30° C. for 30 minutes. Next, 10 μL of 350 mM phosphate buffer was added to the reaction system to stop the reaction. The substrate peptide was adsorbed by a P81 paper filter 96-well plate, then washed a few times with 130 mM phosphate buffer, and its radioactivity was counted with a liquid scintillation counter. The [γ-^33P]-labeled ATP was bought from Amersham Bioscience.
To add a test compound to the reaction system, the compound was diluted with dimethyl sulfoxide (DMSO) to prepare a series of dilutions. 1.1 μL of each dilution was added to the reaction system. As a control, 1.1 μL of DMSO was added to the reaction system.

[2] = tested on: Cdc2 (Cdk1) tyrosine 15 phosphorylation in WiDr cells; test: Cdc2 (Cdk1) tyrosine 15-phosphorylation-inhibitory effect in WiDr cells, gemcitabine-treated (ELISA); assay type: cell-based; conditions: Homo sapiens, 100 nM gemcitabine 24 hours, then test compound with nocodazole 8 hours, read-out: Cdc2-Y15 Phosphorylation-Inhibitory Effect (WiDr, +gemcitabine) (EC50)
Text: Pharmacological Test 2 (Method of Determining Drug Potency with Cells (Cdc2 (Cdk1) Tyrosine 15-Phosphorylation-Inhibitory Effect))
Fetal bovine serum (FBS) was gotten from Morgate; media RPMI1640 and DMEM were from Invitrogen; camptothecin was from Sigma; gemcitabine was from Nippon Eli Lilly; nocodazole and protease inhibitor cocktail were from Sigma; rabbit anti-Cdc2 antibody and mouse anti-Cdc2 antibody were from Santa Cruz Biotechnology; rabbit anti-tyrosine 15-phosphorylated Cdc2 antibody and horseradish peroxidase-labeled anti-mouse IgG antibody were from Cell Signaling Technology; sure blue reserve TMB peroxidase substrate was from Kirkegaard and Perry Laboratories.
Human non-small cell lung cancer cells (NCI-H1299) and human colon cancer cells (WiDr) were gotten from American Type Culture Collection (ATCC).
In the method of using WiDr cells, the cells were suspended in a medium of 10% FBS-added DMEM, and the cell suspension was applied to a 96-well Nunclondelta-processed plastic plate in an amount of 2000 cells/100 μL/well, in which the cells were incubated overnight in 5% CO2-95% air at 37° C. Gemcitabine was dissolved in PBS, and diluted with a medium of 10% FBS-added DMEM, and then this was applied to the plate on which the cells had been previously sowed, in an amount of 50 μL/well in such a manner that the final concentration of gemcitabine could be 100 nM. Then, the cells were incubated for 24 hours at 37° C. in 5% CO2-95% air. A test compound was stepwise diluted with DMSO, then diluted with 1200 nM nocodazole-containing, 10% FBS-added DMEM, and applied to the plate on which the […] cells had been sowed, in an amount of 50 μL/well. The cells were incubated for 8 hours at 37° C. in 5% CO2-95% air, then the culture was removed, and a cytolytic buffer was added to the plate in an amount of 100 μL/well, shaken at 4° C. for 2 hours, then frozen at −80° C., and thawed to give a cell solution. […] Cdc2 was determined through ELISA as follows: A rabbit anti-Cdc2 antibody solution, which had been diluted 200-fold with 50 mM carbonate-bicarbonate buffer (pH 9.6), was applied to a 96-well maxisorp plastic plate in an amount of 50 μL/well, and statically kept overnight at 4° C. so as to fix the antibody on the plate. […] Then, 1 M hydrochloric acid was added to it in an amount of 100 μL/well to stop the reaction, and this was analyzed through colorimetry. Tyrosine 15-phosphorylated Cdc2 was determined through ELISA as follows: A rabbit anti-tyrosine 15-phosphorylated Cdc2 antibody solution, which had been diluted 100-fold with 50 mM carbonate-bicarbonate buffer (pH 9.6), was applied to a 96-well maxisorp plastic plate in an amount of 50 μL/well, and statically kept overnight at 4° C. so as to fix the antibody on the plate. […]

T1 sequence (P30291 whole entry): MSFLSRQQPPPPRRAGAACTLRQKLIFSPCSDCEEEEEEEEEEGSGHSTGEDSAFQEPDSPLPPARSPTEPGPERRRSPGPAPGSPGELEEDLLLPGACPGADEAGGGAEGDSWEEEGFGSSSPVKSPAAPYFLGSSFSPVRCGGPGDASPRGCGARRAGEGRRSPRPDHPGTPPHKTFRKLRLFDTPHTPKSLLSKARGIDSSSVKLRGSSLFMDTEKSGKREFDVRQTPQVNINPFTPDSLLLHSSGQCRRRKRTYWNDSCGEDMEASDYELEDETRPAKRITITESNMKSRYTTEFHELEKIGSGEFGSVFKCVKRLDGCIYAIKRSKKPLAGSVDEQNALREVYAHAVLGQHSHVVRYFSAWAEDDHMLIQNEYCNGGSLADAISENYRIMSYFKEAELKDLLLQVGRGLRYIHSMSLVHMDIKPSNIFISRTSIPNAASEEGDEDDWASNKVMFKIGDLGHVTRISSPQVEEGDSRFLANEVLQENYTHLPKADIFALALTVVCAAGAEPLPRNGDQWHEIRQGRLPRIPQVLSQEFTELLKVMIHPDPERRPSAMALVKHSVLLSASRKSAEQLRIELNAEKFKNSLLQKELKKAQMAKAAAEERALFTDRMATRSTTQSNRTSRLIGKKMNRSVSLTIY

Row | SMILES | IC50 [1] [nM] | EC50 [2] [nM]
1 | C=CCn1c(=O)c2cnc(Nc3ccc(N4CCN(C)CC4)cc3)nc2n1-c1cc(F)cc(-n2ccccc2=O)c1 [Example 4, 2-allyl-1-[3-fluoro-5-(2-oxopyridin-1(2H)-yl)phenyl]-6-{[4-(4-methylpiperazin-1-yl)phenyl]amino}-1,2-dihydro-3H-pyrazolo[3,4-d]pyrimidin-3-one] | 7.2 | 86
2 | C=CCn1c(=O)c2cnc(Nc3cccc(C4CCN(C)CC4)c3)nc2n1-c1cccc(-n2ccccc2=O)n1 [Example 27, 6′-(2-Allyl-6-{[3-(1-methylpiperizin-4-yl)phenyl]amino}-3-oxo-2,3-dihydro-1H-pyrazolo[3,4-d]pyrimidin-1-yl)-2H-1,2′-bipyridin-2-one] | 6.9 | 
3 | C=CCn1c(=O)c2cnc(Nc3ccc(C4CCN(C)CC4)cc3)nc2n1-c1cccc(-n2ccccc2=O)n1 [Example 9, 6′-(2-Allyl-6-{[4-(1-methylpiperidin-4-yl)phenyl]amino}-3-oxo-2,3-dihydro-1H-pyrazolo[3,4-d]pyrimidin-1-yl)-2H-1,2′-bipyridin-2-one] | 11 | 
4 | C=CCn1c(=O)c2cnc(Nc3ccc(N4CCN(C)CC4)c(C)c3)nc2n1-c1cccc(-n2ccccc2=O)n1 [Example 11, 6′-(2-Allyl-6-{[3-methyl-4-(4-methylpiperazin-1-yl)phenyl]amino}-3-oxo-2,3-dihydro-1H-pyrazolo[3,4-d]pyrimidin-1-yl)-2H-1,2′-bipyridin-2-one] | 10 | 92
5 | C=CCn1c(=O)c2cnc(Nc3ccc(OC)c(CO)c3)nc2n1-c1cccc(-n2ccccc2=O)n1 [Example 29, 6′-(2-Allyl-6-{[3-(hydroxymethyl)-4-methoxyphenyl]amino}-3-oxo-2,3-dihydro-1H-pyrazolo[3,4-d]pyrimidin-1-yl)-2H-1,2′-bipyridin-2-one] | 6.5 | 
6 | CC(C)n1c(=O)c2cnc(Nc3ccc4c(c3)CN(C)CC43CC3)nc2n1-c1cccc(-n2ccccc2=O)n1 [Example 39, 6′-{2-Isopropyl-6-[(2′-methyl-2′,3′-dihydro-1′H-spiro[cyclopropane-1,4′-isoquinolin]-7′-yl)amino)-3-oxo-2,3-dihydro-1H-pyrazolo[3,4-d]pyrimidin-1-yl]-2H-1,2′-bipyridin-2-one] | 20.6 | 
7 | C=CCn1c(=O)c2cnc(Nc3ccc(N4CC[C@@H](N(C)C)C4)cc3)nc2n1-c1cccc(-n2ccccc2=O)n1 [Example 2, 6′-[2-allyl-6-({4-[(3R)-3-(dimethylamino)pyrrolidin-1-yl]phenyl}amino)-3-oxo-2,3-dihydro-1H-pyrazolo[3,4-d]pyrimidin-1-yl]-2H-1,2′-bipyridin-2-one] | 18 | 110
8 | C=CCn1c(=O)c2cnc(Nc3ccc(N4CC[C@H](N(C)C)C4)cc3)nc2n1-c1cccc(-n2ccccc2=O)n1 [Example 3, 6′-[2-allyl-6-({4-[(3S)-3-(dimethylamino)pyrrolidin-1-yl]phenyl}amino)-3-oxo-2,3-dihydro-1H-pyrazolo[3,4-d]pyrimidin-1-yl]-2H-1,2′-bipyridin-2-one] | 16 | 
9 | C#CCn1c(=O)c2cnc(Nc3ccc4c(c3)CN(C)CC4)nc2n1-c1cccc(-n2ccccc2=O)n1 [Example 42, 6′-{6-[(2-Methyl-1,2,3,4-tetrahydroisoquinolin-7-yl)amino]-3-oxo-2-(2-propynyl)-2,3-dihydro-1H-pyrazolo[3,4-d]pyrimidin-1-yl}-2H-1,2′-bipyridin-2-one] | 4.4 | 
10 | CN1Cc2cc(Nc3ncc4c(=O)n(C)n(-c5cccc(-n6ccccc6=O)n5)c4n3)ccc2C2(CC2)C1 [Example 38, 6′-{2-Methyl-6-[(2′-methyl-2′,3′-dihydro-1′H-spiro[cyclopropane-1,4′-isoquinolin]-7′-yl)amino]-3-oxo-2,3-dihydro-1H-pyrazolo[3,4-d]pyrimidin-1-yl}-2H-1,2′-bipyridin-2-one] | 12.6 | 
11 | C=CCn1c(=O)c2cnc(Nc3ccc(C4CCN(C)CC4)cc3)nc2n1-c1cccc(-n2ccccc2=O)c1 [Example 8] | 24 | 170
12 | C=CCn1c(=O)c2cnc(Nc3ccc(N4CC(F)(F)C4)cc3)nc2n1-c1cccc(-n2ccccc2=O)n1 [Example 17, 6′-(2-Allyl-6-{[4-(3,3-difluoroazetidin-1-yl)phenyl]amino}-3-oxo-2,3-dihydro-1H-pyrazolo[3,4-d]pyrimidin-1-yl)-2H-1,2′-bipyridin-2-one] | 6.9 | 
